Legend:
[1] = system: HT-29 cells (a colorectal cancer cell line); experiment: Combination with 5-FU on HT-29 cells; type: cell-based, human; settings: FIG. 5
[2] = system: HT-29 xenograft; experiment: HT-29 xenograft mouse model, tumor efficacy; type: in vivo; settings: i.p.
Method: (§1) This example illustrates the efficacy and safety of a compound according to embodiments of the present invention, i.e., Compound 1A, using a HT-29 xenograft mouse model (a colorectal cancer model).
The HT-29 cells were maintained in vitro as a monolayer culture in McCoy's 5A medium supplemented with 10% heat inactivated fetal bovine serum, 100 U/ml penicillin and 100 μg/ml streptomycin at 37° C. in an atmosphere of 5% CO2 in air. The tumor cells were routinely subcultured twice weekly by trypsin-EDTA treatment. The cells growing in an exponential growth phase were harvested and counted for tumor inoculation.
65 mice were inoculated subcutaneously at the right flank with 3.0×10^6 HT-29 tumor cells in 0.1 ml of serum-free medium for tumor development. The treatments were started when the tumor size reached approximately 75 (50-100) mm^3. The test article administration and the animal numbers in each group are shown in the following experiment design Table 5.
The major endpoint was to see if the tumor growth can be delayed or mice can be cured. Tumor size was measured three times weekly in two dimensions using a caliper, and the volume was expressed in mm^3 using the formula: V=0.5 a×b^2 where a and b are the long and short diameters of the tumor, respectively. The tumor size was then used for calculations of both T-C and TGI values. T-C was calculated with T as the median time (in days) required for the treatment group tumors to reach a predetermined size (e.g., 1,000 mm^3), and C as the median time (in days) for the control group tumors to reach the same size. The TGI (in percent)=(T−C)/C*100% represents the tumor growth inhibition rate, T and C were the mean volume of the treated and control groups, respectively, on a given day. Tumor weight was measured at the study termination. The T/C value (in percent) was calculated where T and C are the mean tumor weights of the treated and control groups, respectively.

[3] = HT-29 xenograft mouse model, safety (body weight, observations); type: in vivo
Method: as §1
All the procedures related to animal handling, care, and the treatment in this study were performed according to approved guidelines a following the guidance of the Association for Assessment and Accreditation of Laboratory Animal Care (AAALAC). At the time of routine monitoring, the animals were checked for any effects of tumor growth and treatments on normal behavior such as mobility, food and water consumption (by looking only), body weight gain/loss (body weights were measured thrice weekly), eye/hair matting and any other abnormal effect. Death and observed clinical signs were recorded on the basis of the numbers of animals within each subset.
• a. Blood samples were collected after the 1st dose and the 23rd dose. Collected blood samples from 2 animals in each group at the designated timepoints post dose. The detailed timepoints are as below: • For the groups with QD dosing schedule: 1, 4, 8 and 24 hr post dose. • For the groups with Q2D dosing schedule: 1, 8, 24 and 48 hr post dose. • b. 20 μl blood was collected via tail vein in EDTA-2K tube (0.5 ml tube containing 0.4 μl 15% EDTA-2K. 60u1 double distilled water was added into the tube and mixed well.

[4] = system: 786-O (kidney); experiment: Cell proliferation assay (CellTiter-Glo Luminescent); type: cell-based; settings: Homo sapiens, 786-0, 1 mM glucose, 96 hr
[5] = H1299 nude mouse xenograft study, toxicity (body weight, deaths, organ weights); type: in vivo, mice; settings: mouse, in vivo, ip; for Deaths NTR: female, nude (nu/nu)
Method: The animals were fed ad libitum water (reverse osmosis, 1 ppm Cl) and NIH 31 Modified and Irradiated Lab Diet® consisting of 18.0% crude protein, 5.0% crude fat, and 5.0% crude fiber. The mice were housed on irradiated Enrich-o′ Cobs™ Laboratory Animal Bedding in static microisolators on a 12-hour light cycle at 20-22° C. (68-72° F.) and 40-60% humidity.
Dosing began on D1 in four groups of mice (n=12/group in Groups 1, 3, and 4; n=6 in Group 2). XT26 and its vehicle were administered intraperitoneally (i.p.) twice daily for 28 days (b.i.d.×28), starting with the p.m. dose on D1 and ending with the a.m. dose on D29. Gemcitabine was administered i.p. once daily at three-day intervals for four doses (q3d×4). In all groups, the dosing volume of 10 ml/kg (0.2 ml/20 g mouse) was scaled to the weight of each individual animal, as measured twice weekly.
Group 1 mice received the XT26 vehicle b.i.d.×28, and served as the controls for the study. Group 2 received gemcitabine at 120 mg/kg. Group 3 was to receive XT26 at 100 mg/kg b.i.d.×28; on D21, four mice (Animals 1, 3, 4, and 5) erroneously received 200 mg/kg XT26 for their a.m. dose. Group 4 was to receive XT26 at 200 mg/kg b.i.d.×28, but dosing stopped on D9 (b.i.d.×8) because of toxicity. Group 4 dosing at 200 mg/kg resumed on D17 on a qd (once daily)×13 dosing schedule. Because of a scheduling error, the D19 dose for Group 4 mice was omitted; qd dosing occurred on Days 17, 18, and 20-28.
Animals were weighed daily on D1-5, then twice weekly until the completion of the study. The mice were observed frequently for overt signs of any adverse, treatment-related side effects.
On D10, both kidneys and the liver were harvested from each euthanized Group 4 animal. Each organ was weighed separately, fixed overnight in 10% neutral buffered formalin, and transferred to 70% ethanol.

Row | Structure (SMILES) | effect in combination with 5-FU [1] | anti-tumor activity ([2]; 100 mg/kg Q2D) | anti-tumor activity ([2]; 200 mg/kg QD) | TGI reached by day ten ([2]; 200 mg/kg QD) | Tumor Growth Inhibition (TGI) ([2]; 400 mg/kg QD, HT-29 xenograft, BALB/c nude mice) | TGI reached by day ten ([2]; 400 mg/kg QD) | body weight loss ([3]; all the treatment groups (100-400 mg/kg i.p.)) | in vivo safety profile ([3]; highest dosage level 400 mg/kg QD) | AC50 [4] | Deaths NTR ([5]; 100 mg/kg, 28 days) | Deaths NTR ([5]; 200 mg/kg) | Mean BW Nadir ([5]; 200 mg/kg)
1 | CCS(=O)(=O)Nc1ccc(C2=NN(C(C)=O)C(c3ccc(OC)cc3)C2)cc1 (racemic) [Compound 1A, N-(4-(1-acetyl-5-(4-methoxyphenyl)-4,5-dihydro-1H-pyrazol-3-yl)phenyl)ethanesulfonamide] | at least additive | statistically significantly anti-tumor activity | statistically significantly anti-tumor activity | > 50% | 42% | > 50% | No significant body weight loss | good in vivo safety profile | – | – | – | –
2 | COc1ccc([C@@H]2CC(c3ccc(NS(=O)(=O)c4ccc(F)cc4)cc3)=NN2C(C)=O)cc1 [Compound 13A, (S)—N-(4-(1-acetyl-5-(4-methoxyphenyl)-4,5-dihydro-1H-pyrazol-3-yl)phenyl)-4-fluorobenzenesulfonamide] | – | – | – | – | – | – | – | – | < 3 µM | 0 | 0 | −13.6%
